Source: PMC11676204
Read-outs that look alike come from different tables or passages of the source. Values belong to the compound of their own block, whether it stands above or below them.

Legend:
[1] = test system: methyl predenisolone-induced hypertensive rats; test: Antihypertensive activity, non-invasive tail-cuff method; format: in vivo, rat; parameters: Systolic BP / Diastolic BP: unit not given here; settings: for Diastolic BP / Heart Rate / MABP / Systolic BP: methyl predenisolone 20 mg/kg/week rats, n = 4, mean ± S.E.M.
Protocol: After recording the initial BP of rats, the animals were divided into seven groups of four animals each. One group was chosen as the control group. The remaining groups were given a subcutaneous injection of methyl-predenisolone acetate (20 mg/kg/week) for one week, as described by Ekerbicer, N et al.. […] In total, 28 animals were evenly divided into 7 groups of 4 animals each to attain maximum balance of subjects across experimental conditions. […] Animals in group II (hypertensive control) were injected methylprednisolone acetate (20 mg/kg/week) intraperitoneally for hypertension induction, creating a baseline model of plateau hypertension. Animals in Group III were administered with 20 mg/kg/week intraperitoneal injection of methylprednisolone treated with captopril at an oral dosage of 5 mg/kg/day. For Group IV, the basal dosage of methylprednisolone was provided along with a higher dosage of captopril (10 mg/kg/day by oral route). […] The inclusion of multiple treatment groups with varying doses provided insights into the relative efficacy and dose-response relationship of the interventions. Randomization was done by block randomization, ensuring without bias these allocations of animals into groups. Before intervention, baseline characteristics such as weight, age, or sex of animals were determined, and t-test or ANOVA was used to affirm that no significant difference between groups existed. The SYRCLE’s Risk of Bias tool analyzed potential biases across various domains like selection, performance, and detection bias; each domain was rated according to low, high, or unclear risk.
The CODA Non-Invasive Blood Pressure Recorder (Kent Scientific Corporation, Torrington, CT, USA) was used to measure mean arterial blood pressure in conscious rats using the tail-cuff method. With the rat’s tail protruding, the restrainer was inserted in the BP instrument. […] The tail was gently pressed against a transducer membrane that was linked to the digital BP display panel. After that, the device was turned on and stabilized until a consistent pulse rate was seen. […] In this investigation, albino rats (body weight 150–200 g) were employed. Rats were divided into four groups, each with four individuals. […] After 1 h, the mean arterial blood pressure was measured.
Statistical analysis was carried out by one-way analysis of variance followed by Dunnet’s multiple comparison test using GraphPad InStat 3 (Graph Pad Software Inc., San Diego, CA, USA). All values were expressed as mean ± standard error of the mean (SEM). All groups were compared with hypertensive control animals. p-value of <0.01 was statistically significant.

[2] = Pharmacokinetics after oral administration (plasma, UV spectrophotometry at 340 nm); format: in vivo; settings: rat; for Cmax / MRT / AUC(0-t): plasma; for AUC(0-t): read-out: AUC 0–7 (converted)
Protocol: In accordance with the ICH guidelines Q2 (R1) (2005) standard calibration curves, regression equations, and values for LOD and LOQ for each compound were validated with UV spectrophotometric method. Various parameters, such as linearity, precision, limit of detection, and limit of quantification, were considered for the method validation. […] The rats were orally administered (10, 20, and 40 mg/Kg body weight, n = 3) using a 20 G gavage needle. The animals were given a standard diet 4 h after the dosing, and blood samples were collected (approximately 400 μL) from each animal and placed into heparinized tubes before the dosing and at 0, 30, 60, 120, 180, 240, 300, 360, and 420 min after the dosing. Plasma (100 μL) was separated by centrifuging blood samples at 3600 rpm for 10 min at room temperature, followed by immediate processing for the analyses.
Plasma concentration by the compound was measured by UV spectrophotometry at 340 nm and validated per ICH requirements. […] The precision studies gave % RSD less than 2 for intra-day and inter-day variations, and recovery studies were between 97–99%, indicating the reliability of method.
The plasma concentration–time graph obtained after oral administrations were subjected to non-compartmental analyses based on the statistical moment theory, as shown in Figure 6 and Table 4. Pharmacokinetic parameters were calculated using WinNorlin 5.2 (Certara; available at www.certara.com, accessed on 20 November 2024). The parameters obtained include maximum plasma concentration (Cmax), the time to reach Cmax (Tmax), the elimination half-life (t1/2), the area under the plasma concentration–time curve from time zero to infinity (AUC0–∞), the area under the plasma concentration–time curve from time zero to 420 min AUC0–7, the mean residence time (MRT), and clearance (CL).

ACE enzyme = ACE enzyme (Homo sapiens, UniProt P12821); test: ACE inhibition assay (absorbance at 340 nm)
ACE enzyme, sequence (P12821 30-1306, species assumed): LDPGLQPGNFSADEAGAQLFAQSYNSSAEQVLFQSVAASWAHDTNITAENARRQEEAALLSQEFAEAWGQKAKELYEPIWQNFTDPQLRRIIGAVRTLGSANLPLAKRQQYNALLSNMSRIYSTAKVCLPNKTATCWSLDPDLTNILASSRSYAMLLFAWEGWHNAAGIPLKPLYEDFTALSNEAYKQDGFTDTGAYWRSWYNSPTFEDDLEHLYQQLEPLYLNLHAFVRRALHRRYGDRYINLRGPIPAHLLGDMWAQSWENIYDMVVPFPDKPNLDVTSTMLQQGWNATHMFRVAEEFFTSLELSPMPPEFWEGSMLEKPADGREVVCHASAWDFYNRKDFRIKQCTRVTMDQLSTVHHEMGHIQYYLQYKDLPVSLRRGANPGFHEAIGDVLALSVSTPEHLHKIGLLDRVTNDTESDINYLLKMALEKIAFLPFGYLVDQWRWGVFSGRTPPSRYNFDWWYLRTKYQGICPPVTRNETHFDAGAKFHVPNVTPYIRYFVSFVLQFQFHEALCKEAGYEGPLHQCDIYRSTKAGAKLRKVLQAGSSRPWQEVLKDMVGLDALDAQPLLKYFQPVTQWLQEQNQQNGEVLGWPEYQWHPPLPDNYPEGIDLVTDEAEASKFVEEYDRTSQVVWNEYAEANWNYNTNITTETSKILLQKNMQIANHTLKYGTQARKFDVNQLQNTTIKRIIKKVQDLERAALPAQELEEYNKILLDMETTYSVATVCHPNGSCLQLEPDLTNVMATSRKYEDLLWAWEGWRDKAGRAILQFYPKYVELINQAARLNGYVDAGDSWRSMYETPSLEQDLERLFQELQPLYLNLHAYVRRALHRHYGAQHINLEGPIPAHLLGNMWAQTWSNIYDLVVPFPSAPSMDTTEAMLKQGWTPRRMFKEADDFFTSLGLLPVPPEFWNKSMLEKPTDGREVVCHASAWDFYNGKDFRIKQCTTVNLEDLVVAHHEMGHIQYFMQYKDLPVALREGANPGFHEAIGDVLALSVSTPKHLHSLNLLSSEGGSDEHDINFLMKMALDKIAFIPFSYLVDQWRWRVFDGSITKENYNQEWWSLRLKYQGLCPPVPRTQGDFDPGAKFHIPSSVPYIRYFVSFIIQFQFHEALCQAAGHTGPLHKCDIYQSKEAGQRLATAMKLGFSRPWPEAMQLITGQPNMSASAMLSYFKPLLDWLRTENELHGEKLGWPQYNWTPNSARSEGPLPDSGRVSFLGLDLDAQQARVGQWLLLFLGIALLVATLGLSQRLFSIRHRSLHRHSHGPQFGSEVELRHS
Protocol: The enzyme solution and substrate were prepared under standard protocols, and the assay was performed in 96-well plates wherein the ACE enzyme and inhibitor were mixed with the substrate. The reaction was incubated at 37 °C for 30 min, after which the ACE activity was determined by measuring the absorbance at 340 nm that correlated with the product formation and enzyme activity [36]. The IC₅₀ values that specify inhibition at 50% concentration were generated from concentration-inhibition data. The percentage inhibition was calculated using the formula:Percentage Inhibition (%) = (A − C)/ (A − B) ∗ 100 where A is the absorbance of the negative control (substrate and enzyme), B is the absorbance of the blank (buffer only) and C is the absorbance of the sample (enzyme, substrate and sample). For the positive control, captopril was used instead of a sample and was considered as C.

SMILES: C[C@H](CS)C(=O)N1CCC[C@H]1C(=O)O [Captopril, captopril, reference compound]
Diastolic BP ([1]; 5 mg/kg): 117.8 ± 11.19
Heart Rate ([1]; 5 mg/kg): 507.11 ± 6.13 Beats/min
MABP ([1]; 5 mg/kg): 126.19 ± 11.10 mmHg
Systolic BP ([1]; 5 mg/kg): 142.99 ± 10.88
Diastolic BP ([1]; 10 mg/kg): 98.66 ± 10.18
Heart Rate ([1]; 10 mg/kg): 421.78 ± 12.0 Beats/min
MABP ([1]; 10 mg/kg): 112.6 ± 5.17 mmHg
Systolic BP ([1]; 10 mg/kg): 136.77 ± 6.13

Cmax ([2]; 10 mg/kg b.w. oral): 100 µg/mL
MRT ([2]; 10 mg/kg b.w. oral): 3.05 h
AUC(0-t) ([2]; 10 mg/kg b.w. oral): 438 µg·h/mL
Cmax ([2]; 20 mg/kg b.w. oral): 119 µg/mL
MRT ([2]; 20 mg/kg b.w. oral): 2.98 h
AUC(0-t) ([2]; 20 mg/kg b.w. oral): 499 µg·h/mL
Cmax ([2]; 40 mg/kg b.w. oral): 125 µg/mL
MRT ([2]; 40 mg/kg b.w. oral): 3.04 h
AUC(0-t) ([2]; 40 mg/kg b.w. oral): 539 µg·h/mL
Elimination Rate ([2]; 10 mg/kg b.w. oral): 0.0001236 h⁻¹
Elimination Rate ([2]; 20 mg/kg b.w. oral): 0.0006846 h⁻¹
Elimination Rate ([2]; 40 mg/kg b.w. oral): 0.0002917 h⁻¹
bioavailability ([2]; oral): moderate
IC50 (ACE enzyme): ~20 µM
inhibition at 100 µM (ACE enzyme; read-out: maximum ACE inhibition): ~82%
SMILES: COc1cc2oc(-c3ccc(O)cc3)c(OC3OC(CO)C(O)C(O)C3O)c(=O)c2c(O)c1OC (stereo not shown)
Diastolic BP ([1]; 10 mg/kg): 126.99 ± 6.80
Heart Rate ([1]; 10 mg/kg): 443.99 ± 15.12 Beats/min
MABP ([1]; 10 mg/kg): 144.4 ± 4.59 mmHg
Systolic BP ([1]; 10 mg/kg): 179.19 ± 7.18
Diastolic BP ([1]; 20 mg/kg oral): 110.88 ± 10.28
Heart Rate ([1]; 20 mg/kg oral): 430.66 ± 10.5 Beats/min
MABP ([1]; 20 mg/kg oral): 120.1 ± 5.1 mmHg
Systolic BP ([1]; 20 mg/kg oral): 138.44 ± 7.09
Diastolic BP ([1]; 40 mg/kg oral): 85.76 ± 7.4
Heart Rate ([1]; 40 mg/kg oral): 408.99 ± 9.0 Beats/min
MABP ([1]; 40 mg/kg oral): 95.53 ± 7.5 mmHg
Systolic BP ([1]; 40 mg/kg oral): 114.99 ± 5.8
blood pressure in treated rats ([1]; 10, 20 and 40 mg/kg): dose-dependent decrease in blood pressure
systolic and diastolic blood pressures compared with vehicle ([1]; methyl predenisolone-induced hypertensive rats, p < 0.01): significantly lower
